For the experiment, the target named is T1, Dimer of Gag-Pol polyprotein [489-587] (Human immunodeficiency virus 1, UniProt P12497).
T1 construct: 489-587
Description: Protease Inhibition Assay. The conditions noted are these: pH 4.7; 37 °C. Here is the method: For determination of IC50 values, HIV-1 protease was added to assay buffer containing inhibitor and the substrate (H-His-Lys-Ala-Arg-Val-Leu- (p-NO2) Phe-Glu-Ala-norleucine-Ser-NH2). The Leu- (p-NO2) Phe bond of the substrate was cleaved by the enzyme, and the substrate and products were separated by reversed-phase HPLC. Absorbance was measured at 220 nm, peak areas were determined, and percentage conversion to product was calculated.
Turning to `O=c1oc2ccccc2c(O)c1CC/C(=N/O)c1ccccc1` [4-Hydroxy-3-[3-(hydroroKyimino)-3-phenylpropyl] -2H-1-benzopyran-2-one], the IC50 was 71 µM.

Molecule `O=C(O)c1cccc(OCCCc2c(O)c3ccccc3oc2=O)c1` [3-[3-(4-hydroxy-2-oxo-2H-chromen-3-yl)propoxy]benzoic acid] returned an IC50 of 7 µM. This IC50 lies about 10-fold lower than the previous one.

For `COc1ccccc1CCCCc1c(O)c2ccccc2oc1=O` [4-hydroxy-3-[4-(2-methoxyphenyl)butyl]-2H-chromen-2-one], the midpoint of inhibition, the IC50, lay at 1.7 µM.

The molecule `O=c1oc2ccccc2c(O)c1CCCCOc1ccccc1` [4-hydroxy-3-(4-phenoxybutyl)-2H-chromen-2-one] displayed an IC50 above 100 µM.

The molecule `COc1ccc(CCCCc2c(O)c3ccccc3oc2=O)cc1` [4-hydroxy-3-[4-(4-methoxyphenyl)butyl]-2H-chromen-2-one] displayed an IC50 above 100 µM.

In turn, `Nc1cccc(OCCCc2c(O)c3ccccc3oc2=O)c1` [3-[3-(3-aminophenoxy)propyl]-4-hydroxy-2H-chromen-2-one] registered an IC50 of 6.4 µM. In other words, the single-digit micromolar range.

Turning to `NC(=O)c1cccc(OCCCc2c(O)c3ccccc3oc2=O)c1` [3-[3-(4-Hydroxy-2-oxo-2H-1-benzopyran-3-yl)prpoxyl-benzamide], the IC50 is 3.9 µM.

In turn, `COc1ccccc1OCCCc1c(O)c2ccccc2oc1=O` [4-hydroxy-3-[3-(2-methoxyphenoxy)propyl]-2H-chromen-2-one] showed an IC50 of 44 µM.

Regarding `O=c1[nH]c2ccccc2c(O)c1CCCOc1ccccc1` [4-hydroxy-3-(3-phenoxypropyl)-1,2-dihydroquinolin-2-one], the IC50 was above 200 µM.

The molecule `CCOC(=O)c1cccc(OCCCc2c(O)c3ccccc3oc2=O)c1` [ethyl 3-[3-(4-hydroxy-2-oxo-2H-chromen-3-yl)propoxy]benzoate] gave an IC50 of 1.4 µM.

The molecule `O=c1oc2ccccc2c(O)c1CCCO` [4-Hydroxy-3-(3-hydroxypropyl)-2H-1-benzopyran-2-one] gave an IC50 of 86 µM. Against the preceding molecule, the IC50 is about 61-fold higher.

`O=c1oc2ccccc2c(O)c1CCCOc1cccc(CO)c1` [4-hydroxy-3-{3-[3-(hydroxymethyl)phenoxy]propyl}-2H-chromen-2-one] came in with an IC50 of 2.3 µM.

Consider `COc1ccccc1CCCCc1c(O)c2ccc(OCc3ccccc3)cc2oc1=O` [7-(benzyloxy)-4-hydroxy-3-[4-(2-methoxyphenyl)butyl]-2H-chromen-2-one], for which the IC50 was above 100 µM.

As a reminder, the IC50 is the concentration at which inhibition is half-maximal. The low end stands for greater potency in that assay, the high end for weaker potency in that assay.

(Values after BindingDB's records for doi:10.1021/jm00043a006 (Parke-Davis Pharmaceutical Research, 1994).)
